pKi: −log10 of the molar value. Bounds are passed on as bounds.

The target of assay [1] is T1, human dopamine D3 receptors (Homo sapiens, UniProt P35462).
T1 construct: expressed in transfected cells; membranes)
Kind of assay: Dopamine D3 receptor binding, [125I]-iodosulpride displacement. The following applies: membranes of HEK-293 cells, 0.1 nM [125I]-iodosulpride. As to the method: (§1) Each as-say mixture was run in triplicate. • The incubation buffer contained 50 mM tris, 120 mM NaCl, 5 mM KCl, 2 mM CaCl2, 2 mM MgCl2 and 0.1% bovine serum albumin, 10 μM quinolone and 0.1% ascorbic acid (prepared fresh daily). […] Each assay mixture was run in triplicate. • The incubation buffer contained 50 mM tris, 120 mM NaCl, 5 mM KCl, 2 mM CaCl2, 2 mM MgCl2 and 0.1% bovine serum albumin. The buffer was adjusted to pH 7.4 with HCl. c) Measurement and Analysis: • After having been incubated at 25° C. for 60 minutes, the assay mixtures were filtered through a Whatman GF/B glass fiber filter under vacuum using a cell collecting device. The filters were transferred to scintillation viols using a filter transfer system. After 4 ml of Ultima Gold® (Packard) have been added, the samples were shaken for one hour and the radioactivity was then counted in a Beta-Counter (Packard, Tricarb 2000 or 2200CA).

Assay [2] addresses T2, human dopamine D2L receptors (long isoform) (Homo sapiens, UniProt P14416).
T2 construct: expressed in transfected cells; membranes)
The assay is described as follows: Dopamine D2L receptor binding, [125I] iodospiperone displacement. The following applies: ratio of Ki at human D2L to Ki at human D3, HEK-293 membranes. As to the method:
as §1

T2 sequence (P14416 whole entry, canonical isoform): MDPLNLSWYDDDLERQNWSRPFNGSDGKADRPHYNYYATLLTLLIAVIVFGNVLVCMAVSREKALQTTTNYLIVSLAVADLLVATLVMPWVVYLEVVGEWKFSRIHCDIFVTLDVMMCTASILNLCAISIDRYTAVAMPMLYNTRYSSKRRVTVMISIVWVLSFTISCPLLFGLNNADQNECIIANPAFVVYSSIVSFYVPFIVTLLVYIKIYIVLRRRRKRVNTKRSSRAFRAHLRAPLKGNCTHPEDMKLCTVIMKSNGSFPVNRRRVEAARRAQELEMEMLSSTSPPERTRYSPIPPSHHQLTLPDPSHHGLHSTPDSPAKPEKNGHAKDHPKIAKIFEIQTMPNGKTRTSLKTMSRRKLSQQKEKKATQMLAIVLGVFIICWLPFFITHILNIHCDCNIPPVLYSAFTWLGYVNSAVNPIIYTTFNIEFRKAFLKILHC
T1 sequence (P35462 whole entry): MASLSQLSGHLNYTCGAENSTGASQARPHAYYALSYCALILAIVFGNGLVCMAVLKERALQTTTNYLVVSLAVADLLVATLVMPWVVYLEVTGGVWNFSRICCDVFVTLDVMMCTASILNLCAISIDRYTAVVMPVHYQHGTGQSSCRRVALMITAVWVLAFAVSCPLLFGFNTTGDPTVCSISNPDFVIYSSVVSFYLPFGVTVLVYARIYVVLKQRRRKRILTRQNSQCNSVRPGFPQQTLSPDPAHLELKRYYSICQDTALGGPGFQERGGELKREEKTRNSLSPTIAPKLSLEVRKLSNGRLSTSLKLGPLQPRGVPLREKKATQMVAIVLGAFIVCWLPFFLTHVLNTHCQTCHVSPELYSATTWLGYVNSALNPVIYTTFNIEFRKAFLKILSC

In the case of `CC(C)(C)c1nc(C2CCC2)cc(N2CCN(CCCCn3ncc(=O)[nH]c3=O)CC2)n1` [Example 5, 2-{4-[4-(2-tert-Butyl-6-cyclobutyl-pyrimidin-4-yl)-piperazin-1-yl]butyl}-2H-[1,2,4]triazine-3,5-dione], the pKi in assay [1] is > 8.00. In addition, the “Selectivity vs. D2L, Ki(D2L)/Ki(D3)” value in assay [2] was “++ (++>20)”.
Turning to `Cc1nn(CCCCN2CCN(c3cc(C(F)(F)F)nc(C(C)(C)C)n3)CC2)c(=O)[nH]c1=O.Cl` [Example 6, 2-{4-[4-(2-tert-Butyl-6-trifluoromethyl-pyrimidin-4-yl)-piperazin-1-yl]butyl}-6-methyl-2H-[1,2,4]triazine-3,5-dione hydrochloride], the pKi in assay [1] was > 8.00. Besides, the “Selectivity vs. D2L, Ki(D2L)/Ki(D3)” value in assay [2] is recorded as “++ (++>20)”.
For the compound `CC(C)(C)c1nc(N2CCN(CCCCn3ncc(=O)[nH]c3=O)CC2)cc(C(F)(F)F)n1.Cl` [Example 1, 2-{4-[4-(2-tert-Butyl-6-trifluoromethyl-pyrimidin-4-yl)-piperazin-1-yl]butyl}-2H-[1,2,4]triazine-3,5-dione hydrochloride], the negative-log Ki (pKi) in assay [1] is > 8.00. In addition, the “Selectivity vs. D2L, Ki(D2L)/Ki(D3)” value in assay [2] is listed as “++ (++>20)”.
For `CCCc1cc(N2CCN(CCCCn3ncc(=O)[nH]c3=O)CC2)nc(C(C)(C)C)n1` [Example 3, 2-{4-[4-(2-tert-Butyl-6-propyl-pyrimidin-4-yl)-piperazin-1-yl]butyl}-2H-[1,2,4]triazine-3,5-dione], in assay [1], the pKi is > 8.00. Further, the “Selectivity vs. D2L, Ki(D2L)/Ki(D3)” value in assay [2] is “+++ (+++>50)”.
Turning to `CC(C)(C)c1nc(C(F)F)cc(N2CCN(CCCCn3ncc(=O)[nH]c3=O)CC2)n1.Cl` [Example 2, 2-{4-[4-(2-tert-Butyl-6-difluoromethyl-pyrimidin-4-yl)-piperazin-1-yl]butyl}-2H-[1,2,4]triazine-3,5-dione hydrochloride], the pKi in assay [1] is > 8.00. Further, the “Selectivity vs. D2L, Ki(D2L)/Ki(D3)” value in assay [2] is given as “++ (++>20)”.
For the compound `CCCc1cc(N2CCN(CCCCn3nc(C)c(=O)[nH]c3=O)CC2)nc(C(C)(C)C)n1.Cl` [Example 7, 2-{4-[4-(2-tert-Butyl-6-propyl-pyrimidin-4-yl)-piperazin-1-yl]butyl}-6-methyl-2H-[1,2,4]triazine-3,5-dione hydrochloride], the pKi in assay [1] was > 8.00. In addition, the “Selectivity vs. D2L, Ki(D2L)/Ki(D3)” value in assay [2] was “++ (++>20)”.
Take `CC(C)(C)c1cc(N2CCN(CCCCn3ncc(=O)[nH]c3=O)CC2)nc(C(C)(C)C)n1.O=C(O)C(F)(F)F` [Example 4, 2-{4-[4-(2,6-Di-tert-butyl-pyrimidin-4-yl)-piperazin-1-yl]butyl}-2H-[1,2,4]triazine-3,5-dione trifluoroacetate]: in assay [1], the pKi is > 8.00. Moreover, the “Selectivity vs. D2L, Ki(D2L)/Ki(D3)” value in assay [2] is given as “++ (++>20)”.

One may read the pKi as the negative decadic logarithm of the Ki, by convention in mol/L.

Source of the values: patent publication US8492540B2, “1,2,4,-triazin-3,5-dione compounds suitable for treating disorders that respond to modulation of the dopamine D3 receptor” (Abbott GmbH & Co. KG, priority 2007, dated 2013).
